From PMC10399197, “Insights into Enzymatic Catalysis from Binding and Hydrolysis of Diadenosine Tetraphosphate by E. coli Adenylate Kinase” (Biochemistry, 2023) come the findings set out here.

The Kd is the constant that tells how readily two partners part at equilibrium.

Test [1] has as its target T1, adenylate kinase (AdK) (Escherichia coli, UniProt P69441). Put plainly: Kd (Figure S1; ITC in the Supporting Information); also 1H-15N HSQC NMR, DEER EPR and […] NMR hydrolysis. The format is binding. More on the design: wild-type AdK.
For test [2], the target named is T1, adenylate kinase (AdK). Put plainly: X-ray crystal structure at […] Å (AdK cocrystallized with AP4A; two ADP molecules modeled). Type of test: binding.

T1 sequence (P69441 whole entry): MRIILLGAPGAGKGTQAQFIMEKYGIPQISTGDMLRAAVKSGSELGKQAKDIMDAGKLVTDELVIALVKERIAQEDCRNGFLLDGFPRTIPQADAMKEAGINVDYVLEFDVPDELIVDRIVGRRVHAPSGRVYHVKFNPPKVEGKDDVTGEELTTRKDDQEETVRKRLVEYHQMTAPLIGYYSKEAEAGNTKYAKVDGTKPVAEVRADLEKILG

At adenylate kinase (AdK) [1], `Nc1ncnc2c1ncn2[C@@H]1O[C@H](COP(=O)(O)OP(=O)(O)OP(=O)(O)OP(=O)(O)OC[C@H]2O[C@@H](n3cnc4c(N)ncnc43)[C@H](O)[C@@H]2O)[C@@H](O)[C@H]1O` [AP4A] showed a Kd of 14 µM.
On to `Nc1ncnc2c1ncn2[C@@H]1O[C@H](COP(=O)(O)OP(=O)(O)O)[C@@H](O)[C@H]1O` [ADP], for which, at adenylate kinase (AdK) [2], the “X-ray crystal structure at 1.49 Å (AdK cocrystallized with AP4A); two ADP molecul” value is “the crystals trapped AdK in the closed conformation in complex with two ADP molecules”.
